The values below are quoted from earlier work in paper PMC9851200, “Multiparameter phenotypic screening for endogenous TFEB and TFE3 translocation identifies novel chemical series modulating lysosome function” (Autophagy, 2022).

For series [1], the target named is T1, kinases (KINOMEscan panel) (Homo sapiens, UniProt Q16566).
T1 sequence (Q16566 1-473): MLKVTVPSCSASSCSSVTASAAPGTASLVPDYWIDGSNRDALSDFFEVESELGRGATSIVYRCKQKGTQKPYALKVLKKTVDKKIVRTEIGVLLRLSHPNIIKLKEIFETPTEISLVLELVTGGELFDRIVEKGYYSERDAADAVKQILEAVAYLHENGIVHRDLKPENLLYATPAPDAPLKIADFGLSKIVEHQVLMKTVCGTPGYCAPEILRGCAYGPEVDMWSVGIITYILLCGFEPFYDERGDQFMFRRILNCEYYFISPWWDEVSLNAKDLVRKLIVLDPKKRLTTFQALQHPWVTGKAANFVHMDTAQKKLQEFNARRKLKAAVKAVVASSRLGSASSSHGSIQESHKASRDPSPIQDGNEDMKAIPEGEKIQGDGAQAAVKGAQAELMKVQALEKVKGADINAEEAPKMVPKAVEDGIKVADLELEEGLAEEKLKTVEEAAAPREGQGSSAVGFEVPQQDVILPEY
On the set-up: method as in original PKIS2 published data. As to conditions: CAMK4; Published KINOMEscan; ref original PKIS2 published data; cited from earlier work.

Series [2] deals with T2, kinases (KINOMEscan panel) (Homo sapiens, UniProt Q6ZN16).
T2 sequence (Q6ZN16 1-1313): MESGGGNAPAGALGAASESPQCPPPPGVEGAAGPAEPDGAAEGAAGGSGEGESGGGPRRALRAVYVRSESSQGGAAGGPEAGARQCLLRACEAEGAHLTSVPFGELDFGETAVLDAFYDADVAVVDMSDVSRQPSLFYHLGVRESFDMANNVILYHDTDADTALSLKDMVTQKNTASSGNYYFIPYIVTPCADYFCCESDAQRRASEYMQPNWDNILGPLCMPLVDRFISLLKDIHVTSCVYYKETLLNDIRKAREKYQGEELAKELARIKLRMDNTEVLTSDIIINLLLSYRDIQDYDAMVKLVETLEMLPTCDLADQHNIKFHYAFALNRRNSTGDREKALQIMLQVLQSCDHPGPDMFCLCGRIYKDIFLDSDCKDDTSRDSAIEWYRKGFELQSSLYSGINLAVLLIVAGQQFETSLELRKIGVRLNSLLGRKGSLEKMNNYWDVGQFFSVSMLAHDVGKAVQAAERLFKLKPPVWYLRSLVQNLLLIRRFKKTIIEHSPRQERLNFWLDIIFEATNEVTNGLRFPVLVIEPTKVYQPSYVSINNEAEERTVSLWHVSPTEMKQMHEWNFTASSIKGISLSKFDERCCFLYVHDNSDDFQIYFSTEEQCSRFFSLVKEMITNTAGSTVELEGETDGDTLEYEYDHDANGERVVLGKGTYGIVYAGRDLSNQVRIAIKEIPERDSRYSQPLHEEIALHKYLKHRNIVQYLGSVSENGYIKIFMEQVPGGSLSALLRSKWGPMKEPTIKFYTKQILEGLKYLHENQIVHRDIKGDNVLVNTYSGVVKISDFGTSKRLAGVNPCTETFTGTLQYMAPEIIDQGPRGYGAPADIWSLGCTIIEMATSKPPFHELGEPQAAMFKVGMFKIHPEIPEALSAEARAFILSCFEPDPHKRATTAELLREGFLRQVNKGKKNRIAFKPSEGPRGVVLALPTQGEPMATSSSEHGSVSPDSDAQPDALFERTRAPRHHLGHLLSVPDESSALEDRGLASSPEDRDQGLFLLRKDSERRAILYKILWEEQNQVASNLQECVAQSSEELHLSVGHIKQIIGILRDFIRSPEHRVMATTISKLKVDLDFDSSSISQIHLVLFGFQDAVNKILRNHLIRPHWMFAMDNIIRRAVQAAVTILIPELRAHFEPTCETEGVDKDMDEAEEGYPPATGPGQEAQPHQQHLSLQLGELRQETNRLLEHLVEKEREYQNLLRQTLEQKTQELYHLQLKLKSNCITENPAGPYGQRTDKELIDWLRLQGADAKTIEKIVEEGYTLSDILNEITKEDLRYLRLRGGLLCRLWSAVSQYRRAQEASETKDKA
On the set-up: method as in original PKIS2 published data. As to conditions: Published KINOMEscan; ref original PKIS2 published data; cited from earlier work.

As to `Cc1cccc(-c2nc(Nc3ccncc3)c3ccccc3n2)n1` [NK215], in series [1], the “KINOMEscan CAMK4” value was 47. The “KINOMEscan MAP3K15” value in series [2] is recorded as 0.
